Values after ≈ are worked out from the molar mass of the structure shown. “Also recorded” adds a separate entry of the source. Where two headings read alike, the source gives them in different places. One block for each compound: values may come before it.
Legend:
[1] = Solubility study of crystalline forms in water (slurry, UV); format: physicochemical; settings: for Solubility: slurry stirred 24 hours at ambient temperature (23° C.), UV
Experimental: Analysis of the relative solubilities of crystalline tacedinaline Forms A, B, and D was performed as follows.
The starting material was Form B. The only peak in the spectrum, at approximately 267 nm, was used. The UV parameters were: scan range: 190-800 nm; 480 nm/min; 1 cm cuvette.
Each sample was placed in water to give a slurry. The slurries were stirred at ambient temperature for 24 hours. The temperature in the laboratory was monitored and found to be steady at 23° C. After 24 hours, the vials containing the slurries were centrifuged for about 5 minutes. The mother liquors were decanted and filtered through 0.2 micron filters, then diluted appropriately and analyzed by UV. Solids were dried under dry air purges and analyzed by XRPD.

[2] = Accelerated stability studies, 40° C. and 75% relative humidity, XRPD; format: physicochemical
Experimental: Accelerated stability studies were performed on samples of crystalline tacedinaline Forms A, B, C, and a mixture of Forms B and D, under conditions of 40° C. and 75% relative humidity. For the studies on Form A, samples were taken at 8 days, 15 days, one month, 10 weeks, and 8 months. For the studies on Forms B, C, and a mixture of Forms B and D, samples were taken at 2, 4, 6, 8, and 10 weeks.

[3] = Competitive slurry experiment / relative thermodynamic stability; format: physicochemical; settings: for relative thermodynamic stability, rank order: from Examples 10A, 11 and 12; for thermodynamic stability relative to other forms (in words): slurry experiments (THF overnight; acetone 7 days), Examples 10A, 11, 12
Experimental: To a mixture of 161.3 mg of crystalline tacedinaline Forms B and D, was added 2 mL of acetone. The resulting slurry was stirred at ambient temperature for 7 days and filtered to give white solid.
A slurry containing 25.8 mg tacedinaline Form A, 25.8 mg of a mixture of tacedinaline Forms B and D, a few milligrams of tacedinaline Form B, and 0.5 mL of tetrahydrofuran (THF) was stirred overnight and filtered to give 38.6 mg of a white solid. The white solid was analyzed by XRPD and determined to be tacedinaline Form A.

[4] = Thermal stability relative to Form C; format: physicochemical
Experimental: As used herein, the term “DSC” refers to differential scanning calorimetry. Unless otherwise noted, DSC data disclosed herein were obtained using a TA Instruments 2920 instrument. Samples were prepared in crimped aluminum pans and kept under a flow of nitrogen during analysis. The heating rate was 10° C./minute.
As used herein, the term “TGA” refers to thermogravimetric analysis. Unless otherwise noted, TGA data disclosed herein were obtained using TA Instruments 2050 instrument. Samples were kept under a flow of nitrogen during analysis. The heating rate was 10° C./minute.

[5] = Bioavailability / pharmacokinetics study, single IV and PO administration; format: in vivo, Sprague-Dawley rats; settings: for AUC(0-inf) / AUC(0-t) / Cmax / clearance / half-life / MRT inf / Vd / bioavailability / Tmax: Sprague-Dawley, rat, plasma; for AUC(0-inf) / AUC(0-t) / Cmax / clearance / half-life / MRT inf / Vd / bioavailability: 1 mg/kg; for MRT inf: read-out: MRT(0-∞); for Vd: read-out: Vz
Experimental: A study was performed to determine the pharmacokinetics parameters and bioavailability of Tacedinaline Form A in Sprague-Dawley Rats, following a single intravenous injection (IV) and oral administration (PO). Formulation: IV formulation: The test article was dissolved in 10% DMSO/45% PEG400/45% Saline to yield a final concentration of 0.5 mg/ml for intravenous injection. PO formulation: The test article was suspended in 0.5% methylcellulose in water to yield a final concentration of 0.2 mg/ml for oral administration. Collection Intervals: Three rats in each group were used for blood collection at each time point: Groups 1 and 2: Pre-dose and post-dose (5 min, 15 min, 30 min, 1 hour, 2 hours, 4 hours, 6 hours, 8 hours, and 24 hours). Analysis Procedure: The PK blood samples were centrifuged at approximately 8000 rpm for 6 minutes at 2-8° C. and the resulting plasma separated and stored frozen at approximately −80° C. (following separation, the plasma may be initially placed on ice prior to being stored in the −80° C. freezer). All the plasma samples were labeled with detailed information such as study number, animal number, matrix, time points of collection and date of collection. Pharmacokinetics Analysis: A standard set of parameters including Area Under the Curve (AUC(0-t) and AUC(0-∞)), elimination half-life (T1/2), maximum plasma concentration (Cmax), time to reach maximum plasma concentration (Tmax), clearance (CL), and volume of distribution (VZ) was calculated using noncompartmental analysis modules in FDA certified pharmacokinetic program WinNonlin Professional v6.1 (Pharsight, USA). Further, the bioavailability was estimated using the following formula: […]

relative thermodynamic stability, rank order [3]: A>D>B
Structure (SMILES): CC(=O)Nc1ccc(C(=O)Nc2ccccc2N)cc1 [Form D, 4-(acetylamino)-N-(2-aminophenyl)benzamide]
thermodynamic stability relative to other forms (in words) [3]: more thermodynamically stable under certain conditions relative to Form B
thermal stability relative to Form C (in words) [4]: improved thermal stability relative to tacedinaline Form C

XRPD Result ([2]; pull time 2 weeks): D + A
XRPD Result ([2]; pull time 6 weeks): D + A
XRPD Result ([2]; pull time 8 weeks): D + A
Structure (SMILES): CC(=O)Nc1ccc(C(=O)Nc2ccccc2N)cc1 [Form C, 4-(acetylamino)-N-(2-aminophenyl)benzamide, reference compound]
stability of the solid form (in words) [2]: converted to either Form D, or a mixture of Form D with some amount of Form A present

The remaining lines, values behind:

Structure (SMILES): CC(=O)Nc1ccc(C(=O)Nc2ccccc2N)cc1 [Form B, 4-(acetylamino)-N-(2-aminophenyl)benzamide]
solubility in water compared with other forms (in words) [1]: superior to that of Forms A and D
Solubility [1]: 42.6 µg/mL (≈ 158 µM)
stability of the solid form (in words) [2]: more stable than Form C
relative thermodynamic stability, rank order [3]: A>D>B
thermal stability relative to Form C (in words) [4]: improved thermal stability relative to tacedinaline Form C

Structure (SMILES): CC(=O)Nc1ccc(C(=O)Nc2ccccc2N)cc1 [B + D, 4-acetamido-N-(2-aminophenyl)benzamide]
Solubility [1]: 20.8 µg/mL
stability of the solid form (in words) ([2]; listed as mixture of Form B and Form D): more stable than Form C
XRPD Result ([2]; pull time 2 weeks): B + D
XRPD Result ([2]; pull time 4 weeks): B + D
XRPD Result ([2]; pull time 6 weeks): B + D
XRPD Result ([2]; pull time 8 weeks): B + D

Structure (SMILES): CC(=O)Nc1ccc(C(=O)Nc2ccccc2N)cc1 [Form A, 4-(acetylamino)-N-(2-aminophenyl)benzamide]
Solubility [1]: 17.6 µg/mL (≈ 65.4 µM)
stability of the solid form (in words) [2]: stable, as no conversion was seen
CL_F ([5]; PO 1 mg/kg, Animal No. 1): 4.5 mL/min/kg
Vz_F ([5]; PO 1 mg/kg, Animal No. 1): 1.47 L/kg
CL_F ([5]; PO 1 mg/kg, Animal No. 2): 4.17 mL/min/kg
Vz_F ([5]; PO 1 mg/kg, Animal No. 2): 1.04 L/kg
CL_F ([5]; PO 1 mg/kg, Mean): 4.33 mL/min/kg
Vz_F ([5]; PO 1 mg/kg, Mean): 1.25 L/kg
AUC(0-inf) ([5]; iv, IV 1 mg/kg, Animal No. 1): 3100 ng·h/mL
AUC(0-t) ([5]; iv, IV 1 mg/kg, Animal No. 1): 3090 ng·h/mL
Cmax ([5]; iv, IV 1 mg/kg, Animal No. 1): 799 ng/mL
clearance ([5]; iv, IV 1 mg/kg, Animal No. 1): 5.33 mL/min/kg
half-life ([5]; iv, IV 1 mg/kg, Animal No. 1): 2.81 h
MRT inf ([5]; iv, IV 1 mg/kg, Animal No. 1): 3.46 h
Vd ([5]; iv, IV 1 mg/kg, Animal No. 1): 1.31 L/kg
AUC(0-inf) ([5]; iv, IV 1 mg/kg, Animal No. 2): 3010 ng·h/mL
AUC(0-t) ([5]; iv, IV 1 mg/kg, Animal No. 2): 3010 ng·h/mL
Cmax ([5]; iv, IV 1 mg/kg, Animal No. 2): 715 ng/mL
clearance ([5]; iv, IV 1 mg/kg, Animal No. 2): 5.5 mL/min/kg
half-life ([5]; iv, IV 1 mg/kg, Animal No. 2): 2.82 h
MRT inf ([5]; iv, IV 1 mg/kg, Animal No. 2): 3.57 h
Vd ([5]; iv, IV 1 mg/kg, Animal No. 2): 1.35 L/kg
AUC(0-inf) ([5]; iv, IV 1 mg/kg, Mean): 3060 ng·h/mL
AUC(0-t) ([5]; iv, IV 1 mg/kg, Mean): 3050 ng·h/mL
Cmax ([5]; iv, IV 1 mg/kg, Mean): 757 ng/mL
clearance ([5]; iv, IV 1 mg/kg, Mean): 5.5 mL/min/kg
half-life ([5]; iv, IV 1 mg/kg, Mean): 2.81 h
MRT inf ([5]; iv, IV 1 mg/kg, Mean): 3.52 h
Vd ([5]; iv, IV 1 mg/kg, Mean): 1.33 L/kg
bioavailability ([5]; oral, rats, read-out: bioavailability): 100%
AUC(0-inf) ([5]; po, PO 1 mg/kg, Animal No. 1): 3730 ng·h/mL
AUC(0-t) ([5]; po, PO 1 mg/kg, Animal No. 1): 3700 ng·h/mL
Cmax ([5]; po, PO 1 mg/kg, Animal No. 1): 687 ng/mL
half-life ([5]; po, PO 1 mg/kg, Animal No. 1): 3.81 h
bioavailability ([5]; po, PO 1 mg/kg, Animal No. 1, read-out: F (Bioavailability)): 122%
MRT inf ([5]; po, PO 1 mg/kg, Animal No. 1): 4.6 h
AUC(0-inf) ([5]; po, PO 1 mg/kg, Animal No. 2): 4030 ng·h/mL
AUC(0-t) ([5]; po, PO 1 mg/kg, Animal No. 2): 4020 ng·h/mL
Cmax ([5]; po, PO 1 mg/kg, Animal No. 2): 781 ng/mL
half-life ([5]; po, PO 1 mg/kg, Animal No. 2): 2.9 h
bioavailability ([5]; po, PO 1 mg/kg, Animal No. 2, read-out: F (Bioavailability)): 132%
MRT inf ([5]; po, PO 1 mg/kg, Animal No. 2): 4.06 h
AUC(0-inf) ([5]; po, PO 1 mg/kg, Mean): 3880 ng·h/mL
AUC(0-t) ([5]; po, PO 1 mg/kg, Mean): 3860 ng·h/mL
Cmax ([5]; po, PO 1 mg/kg, Mean): 734 ng/mL
half-life ([5]; po, PO 1 mg/kg, Mean): 3.35 h
bioavailability ([5]; po, PO 1 mg/kg, Mean, read-out: F (Bioavailability)): 127%
MRT inf ([5]; po, PO 1 mg/kg, Mean): 4.33 h
Tmax ([5]; IV 1 mg/kg, Animal No. 1): 0.5 h
Tmax ([5]; PO 1 mg/kg, Animal No. 1): 2 h
relative thermodynamic stability, rank order [3]: A>D>B
thermodynamic stability relative to other forms (in words) [3]: more thermodynamically stable, relative to tacedinaline Forms B, and D; also recorded: more thermodynamically stable under certain conditions relative to Forms B and D
thermal stability relative to Form C (in words) [4]: improved thermal stability relative to tacedinaline Form C
